Where two headings read alike, the source gives them in different places.

One data set concerns LDL cholesterol. As to the kind of experiment: Study DG-031-201: LDL cholesterol. Format: in vivo, human. Conditions: highest dose; [4%,12%], p<0.001. The method, then: Patients who met the study eligebility criteria were enrolled and randomized into 3 different dose-level groups: (1) 64 patients on 250 mg/day therapy with DG-031 (250 mg q.d.), vs placebo; (2) 64 patients on 500 mg/day therapy with DG-031 (250 mg b.i.d.) vs placebo; and (3) 63 patients on 750 mg/day therapy with DG-031 (250 mg t.i.d.) vs placebo. […] All patients received 3 tablets per day. Treatment periods, 4 weeks in duration each, were separated by a 2-week washout period. The placebo tablets were identical in shape, color, form and taste to the active tablets except that they contained no active drug ingredients. Treatment with DG-031 or placebo was in addition to the subject's standard care, including all medications and treatment plan as prescribed by the subject's cardiologist prior to enrolment. A total of 191 subjects were enrolled, with 172 completing all 8 visits or 8 patients short of the target of 180 patients.
12% for MPO ([2%,21%], p=0.02) at the 750 mg/day dose of DG-031. […] Urine levels of LTE4 increased by 27% in response to the highest dose of DG-031 ([15%,40%], p<0.001). Significant correlation was observed between the change of LTB4 and MPO production (r=0.62 [0.51,0.70], p<0.001) within a period, also when considering only those taking drug where the range of these changes were larger. Correlation was also observed for these variables at baseline. […]

The conditions of data set [1]: cited from earlier work; for Safety and tolerability: asthma patients.

Turning to `O=C(O)[C@@H](c1ccc(OCc2ccc3ccccc3n2)cc1)C1CCCC1` [DG-031, (R)-(+)-alpha-cyclopentyl-4-(2-quinolinylmethoxy)-Benzeneacetic acid], in the data set on LDL cholesterol, the “Increase in LDL cholesterol” value turned out to be 8%. Moreover, the Tolerability result in data set [1] (750 mg/day, previous phase I-II human studies in asthma) was “well tolerated”. Further, the Safety and tolerability entry is “safe and well tolerated” in data set [1] (total daily dose 500 mg, greater than 45-365 days); “safe and well tolerated” in data set [1] (total daily dose 250, 500, 750 and 1000 mg, 14 days); “safe and well tolerated” in data set [1] (total daily doses 100, 200, 250, 500 and 1000 mg, 14-42 days).

The values above are taken from patent publication US20060257481A1, “Sustained release formulation and dosing schedule of leukotriene synthesis inhibitor for human therapy” (deCODE Genetics ehf., priority 2005, published 2006).
